This data set concerns the target neprilysin (NEP) (Homo sapiens, UniProt P08473). As to the kind of experiment: In vitro degradation by neprilysin, MALDI-TOF time course. As for the experimental part:
Many peptide hormones are destined for endocrine circulation where they are rapidly degraded with half-lives reaching only a few minutes^6-8.
For enzymatic degradation assays using either NEP or DPP-IV (R&D systems, UK), an enzyme titration was carried out to ensure full degradation within one hour of reaction time.
MALDI-TOF-MS was performed on a Bruker Autoflex instrument (Bruker Daltonik GmbH, Bremen, Germany) by mixing the quenched aliquots with a saturated solution of α-Cyano-4-hydroxycinnamic acid in ACN/H2O/TFA (70:30:0.1) at a ratio 1:1 on a target steel plate and mass-spectra were acquired in linear mode.
Reactions were performed in 50 mM Tris, 0.05% Brij-35, pH 9 (Neprilysin), or 50 mM Tris, 20 mM NaCl, pH 7.5 (IDE) and incubated at 37° C.

Like-named read-outs stand apart in the source and are kept apart here. Bounds are passed on as bounds.

neprilysin (NEP), sequence (P08473 whole entry): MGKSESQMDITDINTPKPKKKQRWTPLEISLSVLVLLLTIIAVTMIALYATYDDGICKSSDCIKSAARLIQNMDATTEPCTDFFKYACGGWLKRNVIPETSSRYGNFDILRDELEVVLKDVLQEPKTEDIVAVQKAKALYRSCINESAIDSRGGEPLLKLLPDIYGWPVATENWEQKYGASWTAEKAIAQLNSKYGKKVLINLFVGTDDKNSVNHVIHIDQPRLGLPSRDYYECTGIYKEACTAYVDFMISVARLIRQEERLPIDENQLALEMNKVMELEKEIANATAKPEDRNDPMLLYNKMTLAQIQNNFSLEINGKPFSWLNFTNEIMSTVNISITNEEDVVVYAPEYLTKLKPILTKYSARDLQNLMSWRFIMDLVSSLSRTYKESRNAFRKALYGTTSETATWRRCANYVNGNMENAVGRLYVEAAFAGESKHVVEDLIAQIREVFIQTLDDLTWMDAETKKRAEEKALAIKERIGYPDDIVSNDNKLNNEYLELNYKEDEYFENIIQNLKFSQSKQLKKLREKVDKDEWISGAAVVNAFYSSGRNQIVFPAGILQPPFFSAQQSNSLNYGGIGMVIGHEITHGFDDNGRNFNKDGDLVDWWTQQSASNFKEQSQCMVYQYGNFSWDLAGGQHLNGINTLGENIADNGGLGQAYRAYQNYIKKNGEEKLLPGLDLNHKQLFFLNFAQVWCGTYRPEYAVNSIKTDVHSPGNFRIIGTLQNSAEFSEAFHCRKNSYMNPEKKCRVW

For the compound Ser23-Tn: Galanin Ser23-Tn glycoform, the “time to complete degradation by NEP” value was found to be 120 min.

Take `CC[C@H](C)[C@@H]1NC(=O)[C@H](CCCNC(=N)N)NC(=O)[C@H](CC(=O)O)NC(=O)[C@H](CCSC)NC(=O)[C@H](CCCNC(=N)N)NC(=O)CNC(=O)CNC(=O)[C@H](Cc2ccccc2)NC(=O)[C@@H](NC(=O)[C@H](CO)NC(=O)[C@H](CO)NC(=O)[C@H](CCCNC(=N)N)NC(=O)[C@H](CCCNC(=N)N)NC(=O)[C@H](CC(C)C)NC(=O)[C@@H](N)CO)CSSC[C@@H](C(=O)N[C@@H](CC(N)=O)C(=O)N[C@@H](CO[C@H]2O[C@H](CO)[C@H](O)[C@H](O)[C@H]2NC(C)=O)C(=O)N[C@@H](Cc2ccccc2)C(=O)N[C@@H](CCCNC(=N)N)C(=O)N[C@@H](Cc2ccc(O)cc2)C(=O)O)NC(=O)CNC(=O)[C@H](CC(C)C)NC(=O)CNC(=O)[C@H](CO)NC(=O)[C@H](CCC(N)=O)NC(=O)[C@H](C)NC(=O)CNC1=O` [ANP-Ser25/Tn]: the “residual full length / partially intact peptide detectable after incubation with NEP” value (37° C., MALDI-TOF) is on record as 15 min.

In the case of “Ser23-T: Galanin Ser23 T extended glycoform”, the “time to complete degradation by NEP” value turned out to be 120 min.

In the case of `CC[C@H](C)[C@@H]1NC(=O)[C@H](CCCNC(=N)N)NC(=O)[C@H](CC(=O)O)NC(=O)[C@H](CCSC)NC(=O)[C@H](CCCNC(=N)N)NC(=O)CNC(=O)CNC(=O)[C@H](Cc2ccccc2)NC(=O)[C@@H](NC(=O)[C@H](CO)NC(=O)[C@H](CO)NC(=O)[C@H](CCCNC(=N)N)NC(=O)[C@H](CCCNC(=N)N)NC(=O)[C@H](CC(C)C)NC(=O)[C@@H](N)CO)CSSC[C@@H](C(=O)N[C@@H](CC(N)=O)C(=O)N[C@@H](CO)C(=O)N[C@@H](Cc2ccccc2)C(=O)N[C@@H](CCCNC(=N)N)C(=O)N[C@@H](Cc2ccc(O)cc2)C(=O)O)NC(=O)CNC(=O)[C@H](CC(C)C)NC(=O)CNC(=O)[C@H](CO[C@H]2O[C@H](CO)[C@H](O)[C@H](O)[C@H]2NC(C)=O)NC(=O)[C@H](CCC(N)=O)NC(=O)[C@H](C)NC(=O)CNC1=O` [ANP-Ser19/Tn], the “major degradation products remained detectable after incubation with neprilysin” value (37° C.) worked out at 24 h. For the same compound, the “residual full length / partially intact peptide detectable after incubation with NEP” value (37° C., MALDI-TOF) came out at 60 min.

For the compound `CC(=O)N[C@H]1[C@@H](O[C@H](C)[C@H](NC(=O)[C@H](Cc2ccccc2)NC(=O)[C@@H](NC(=O)CNC(=O)[C@H](CC(=O)O)NC(=O)[C@H](CO)NC(=O)[C@@H](N)Cc2c[nH]cn2)[C@@H](C)O)C(=O)N[C@@H](CO)C(=O)N[C@@H](CCC(=O)O)C(=O)N[C@@H](CC(C)C)C(=O)N[C@@H](CO)C(=O)N[C@@H](CCCNC(=N)N)C(=O)N[C@@H](CC(C)C)C(=O)N[C@@H](CCCNC(=N)N)C(=O)N[C@@H](CCC(=O)O)C(=O)NCC(=O)N[C@@H](C)C(=O)N[C@@H](CCCNC(=N)N)C(=O)N[C@@H](CC(C)C)C(=O)N[C@@H](CCC(N)=O)C(=O)N[C@@H](CCCNC(=N)N)C(=O)N[C@@H](CC(C)C)C(=O)N[C@@H](CC(C)C)C(=O)N[C@@H](CCC(N)=O)C(=O)NCC(=O)N[C@@H](CC(C)C)C(=O)N[C@H](C(N)=O)C(C)C)O[C@H](CO)[C@H](O)[C@@H]1O` [Secretin-Thr7-Tn], the “remained (completely) intact after incubation with NEP” value (37° C., MALDI-TOF) stood at 60 min.

On to `CC[C@H](C)[C@H](NC(=O)[C@H](CO)NC(=O)[C@H](CC(N)=O)NC(=O)[C@H](CC(C)C)NC(=O)[C@H](Cc1ccc(O)cc1)NC(=O)[C@H](CCCCN)NC(=O)[C@H](CCCCN)NC(=O)[C@@H](NC(=O)[C@H](C)NC(=O)[C@H](CCSC)NC(=O)[C@H](CCC(N)=O)NC(=O)[C@H](CCCCN)NC(=O)[C@H](CCCNC(=N)N)NC(=O)[C@H](CC(C)C)NC(=O)[C@H](CCCNC(=N)N)NC(=O)[C@@H](NC(=O)[C@H](Cc1ccc(O)cc1)NC(=O)[C@H](CC(N)=O)NC(=O)[C@H](CC(=O)O)NC(=O)[C@@H](NC(=O)[C@H](Cc1ccccc1)NC(=O)[C@@H](NC(=O)[C@H](C)NC(=O)[C@H](CC(=O)O)NC(=O)[C@H](CO)NC(=O)[C@@H](N)Cc1c[nH]cn1)C(C)C)[C@@H](C)O[C@H]1O[C@H](CO)[C@H](O)[C@H](O[C@@H]2O[C@H](CO)[C@H](O)[C@H](O)[C@H]2O)[C@H]1NC(C)=O)[C@@H](C)O)C(C)C)C(=O)N[C@@H](CC(C)C)C(=O)N[C@@H](CC(N)=O)C(N)=O` [VIP-Thr7/T], for which the “residual full length / partially intact peptide detectable after incubation with NEP” value (37° C., MALDI-TOF) worked out at 30 min.

Turning to `CC[C@H](C)[C@H](NC(=O)[C@H](CO)NC(=O)[C@H](CC(N)=O)NC(=O)[C@H](CC(C)C)NC(=O)[C@H](Cc1ccc(O)cc1)NC(=O)[C@H](CCCCN)NC(=O)[C@H](CCCCN)NC(=O)[C@@H](NC(=O)[C@H](C)NC(=O)[C@H](CCSC)NC(=O)[C@H](CCC(N)=O)NC(=O)[C@H](CCCCN)NC(=O)[C@H](CCCN=C(N)N)NC(=O)[C@H](CC(C)C)NC(=O)[C@H](CCCN=C(N)N)NC(=O)[C@@H](NC(=O)[C@H](Cc1ccc(O)cc1)NC(=O)[C@H](CC(N)=O)NC(=O)[C@H](CC(=O)O)NC(=O)[C@@H](NC(=O)[C@H](Cc1ccccc1)NC(=O)[C@@H](NC(=O)[C@H](C)NC(=O)[C@H](CC(=O)O)NC(=O)[C@H](CO)NC(=O)[C@@H](N)Cc1c[nH]cn1)C(C)C)[C@@H](C)O)[C@@H](C)O)C(C)C)C(=O)N[C@@H](CC(C)C)C(=O)N[C@@H](CC(N)=O)C(N)=O` [VIP, Vasoactive intestinal peptide, reference compound], under “37° C., MALDI-TOF”, the “time to complete degradation by NEP” value is 15 min.

Regarding `CC[C@H](C)[C@@H]1NC(=O)[C@H](CCCNC(=N)N)NC(=O)[C@H](CC(=O)O)NC(=O)[C@H](CCSC)NC(=O)[C@H](CCCNC(=N)N)NC(=O)CNC(=O)CNC(=O)[C@H](Cc2ccccc2)NC(=O)[C@@H](NC(=O)[C@H](CO)NC(=O)[C@H](CO)NC(=O)[C@H](CCCNC(=N)N)NC(=O)[C@H](CCCNC(=N)N)NC(=O)[C@H](CC(C)C)NC(=O)[C@@H](N)CO)CSSC[C@@H](C(=O)N[C@@H](CC(N)=O)C(=O)N[C@@H](CO[C@H]2O[C@H](CO)[C@H](O)[C@H](O)[C@H]2NC(C)=O)C(=O)N[C@@H](Cc2ccccc2)C(=O)N[C@@H](CCCNC(=N)N)C(=O)N[C@@H](Cc2ccc(O)cc2)C(=O)O)NC(=O)CNC(=O)[C@H](CC(C)C)NC(=O)CNC(=O)[C@H](CO[C@H]2O[C@H](CO)[C@H](O)[C@H](O)[C@H]2NC(C)=O)NC(=O)[C@H](CCC(N)=O)NC(=O)[C@H](C)NC(=O)CNC1=O` [ANP-Ser19+25/Tn], the “major degradation products remained detectable after incubation with neprilysin” value (37° C.) came to 24 h. Besides, the “residual full length / partially intact peptide detectable after incubation with NEP” value (37° C., MALDI-TOF) turned out to be 30 min.

In the case of `CC[C@H](C)[C@H](NC(=O)[C@H](CO)NC(=O)[C@H](CC(N)=O)NC(=O)[C@H](CC(C)C)NC(=O)[C@H](Cc1ccc(O)cc1)NC(=O)[C@H](CCCCN)NC(=O)[C@H](CCCCN)NC(=O)[C@@H](NC(=O)[C@H](C)NC(=O)[C@H](CCSC)NC(=O)[C@H](CCC(N)=O)NC(=O)[C@H](CCCCN)NC(=O)[C@H](CCCNC(=N)N)NC(=O)[C@H](CC(C)C)NC(=O)[C@H](CCCNC(=N)N)NC(=O)[C@@H](NC(=O)[C@H](Cc1ccc(O)cc1)NC(=O)[C@H](CC(N)=O)NC(=O)[C@H](CC(=O)O)NC(=O)[C@@H](NC(=O)[C@H](Cc1ccccc1)NC(=O)[C@@H](NC(=O)[C@H](C)NC(=O)[C@H](CC(=O)O)NC(=O)[C@H](CO)NC(=O)[C@@H](N)Cc1c[nH]cn1)C(C)C)[C@@H](C)O[C@H]1O[C@H](CO)[C@H](O)[C@H](O)[C@H]1NC(C)=O)[C@@H](C)O)C(C)C)C(=O)N[C@@H](CC(C)C)C(=O)N[C@@H](CC(N)=O)C(N)=O` [VIP-Thr7/Tn], the “residual full length / partially intact peptide detectable after incubation with NEP” value (37° C., MALDI-TOF) is reported as 15 min.

On to “Galanin-Ser55/ST: sialylated Galanin variant”, for which the “remained intact / resistant to NEP degradation even after” value was 24 h and the “state after overnight incubation with neprilysin” value was “remained partially intact”.

For `CC(C)C[C@H](NC(=O)CNC(=O)[C@H](CCC(N)=O)NC(=O)[C@H](CC(C)C)NC(=O)[C@H](CC(C)C)NC(=O)[C@H](CCCNC(=N)N)NC(=O)[C@H](CCC(N)=O)NC(=O)[C@H](CC(C)C)NC(=O)[C@H](CCCNC(=N)N)NC(=O)[C@H](C)NC(=O)CNC(=O)[C@H](CCC(=O)O)NC(=O)[C@H](CCCNC(=N)N)NC(=O)[C@H](CC(C)C)NC(=O)[C@H](CCCNC(=N)N)NC(=O)[C@H](CO)NC(=O)[C@H](CC(C)C)NC(=O)[C@H](CCC(=O)O)NC(=O)[C@H](CO)NC(=O)[C@@H](NC(=O)[C@H](Cc1ccccc1)NC(=O)[C@@H](NC(=O)CNC(=O)[C@H](CC(=O)O)NC(=O)[C@H](CO)NC(=O)[C@@H](N)Cc1c[nH]cn1)[C@@H](C)O)[C@@H](C)O)C(=O)N[C@H](C(N)=O)C(C)C` [Secretin, reference compound], the “time to complete degradation by NEP” value (37° C., MALDI-TOF) was ≤ 60 min.

The values above are taken from patent publication US20210171598A1, “PEPTIDE HORMONE WITH ONE OR MORE O-GLYCANS” (priority 2017, published 2021).
